In experiment [1] the test system is rat embryonic cortical neurons exposed to 25 μM 4-HNE. Briefly: neuritic atrophy caused by 4-HNE in cortical neurons. Format: cell-based. As to conditions: pre-treatment 2 days (1 μM; ascorbate 100 μM), then 25 μM 4-HNE 1 day. As for the experimental part: Rat embryonic cortical neurons were treated with mock (FIG. 11C), 1 μM HA-GAGR (high acyl gellan gum), 1 μM dextran, 100 μM ascorbate, or 1 μM midi-GAGR (FIG. 13A) for 2 days and then with 25 μM 4-hydroxynonenal (4-HNE), a lipid peroxide, for 1 day. After fixation, neurons were immunostained with anti-synaptophysin antibody (green) and rhodamine-phalloidin (actin: red). Scholl ring analysis was performed.

Experiment [2] concerns phosphorylated CREB in mouse embryonic cortical neurons. Briefly: nuclear p-CREB immunostaining in embryonic cortical neurons (Example 2). Format: cell-based. The conditions noted are these: 1 μM, 24 h. On the procedure:
(§1) Differentiated PC12 cells and mouse embryonic cortical neurons (E17, DIV14) were treated with mock, dextran, alginate, HA-GAGR, or midi-GAGR (1 μM) for 24 h and fixed in 3.7% paraformaldehyde. The fixed cells and neurons were immunostained with antibodies against α-tubulin and phosopho-CREB (p-CREB) along with DAPI (nucleus).

The target of a further experiment is FGFR1 (Mus musculus, UniProt P16092). Briefly: affinity chromatography with midi-GAGR-conjugated sepharose beads, FGFR1 immunoblotting. Format: binding. On the set-up: Whole mouse brains were homogenized for cytosol extraction in PMEE buffer containing 1% Igepal CA-630; from tissue; host or cells: mouse brain (cerebral cortex / whole brain) detergent extract. The conditions noted are these: 0.5% Igepal CA-630 PMEE buffer. On the procedure:
To examine whether midi-GAGR interacts with synaptosomal FGFR1 or not, an affinity chromatography using midi-GAGR-conjugated sepharose beads was performed. Either midi-GAGR or dextran were conjugated to epoxy-activated sepharose 6B that is a pre-activated medium that can be conjugated to the hydroxyl groups of carbohydrates. Briefly, 200 μL of 7.4 mM midi-GAGR or 5 kD dextran in H2O was mixed with 200 μL of epoxy-activated sepharose beads in a microtube and incubated on a rotator (16 h, 37° C.). The mixture was spun down at 1,000×g (10 min) to separate bead-bound polysaccharides from unbound. Unoccupied active sites on beads were blocked by incubation (4 h, 45° C.) in 1 M ethanolamine (pH 8). Then, beads were washed with three cycles of alternating pH solutions—0.1 M acetate buffer (pH 4) and 0.1 M Tris-HCl buffer (pH 8), both containing 0.5 M NaCl. The conjugation of polysaccharides to beads was confirmed by phenol-sulfuric acid colorimetry. Cerebral cortices were dissected from four female mice (BALB/C, 8 wks old) and homogenized with a hand grinder in 1 mL of PMEE homogenization buffer plus 1% Igepal CA-630 and protease inhibitors (PIs). The homogenate was centrifuged at 1,000×g (10 min) to remove nuclei and undisrupted cells. The supernatant was subjected to 5-6 strokes through 27G needle. Post-nuclear supernatant was centrifuged at 1,000×g (15 min). […]

Experiment [3] relates to primary mouse cortical neurons (E17, DIV4). Briefly: neurite outgrowth in primary mouse cortical neurons. Format: cell-based. The conditions noted are these: 2 days; midi-GAGR, dextran, alginate 1 μM; LA-GAGR 0.1 μM; HA-GAGR 0.01 μM. As for the experimental part:
To analyze the effect of polysaccharides on neurite outgrowth, primary mouse cortical neurons were treated with vehicle (H2O) or 1 μM of dextran, alginate, or midi-GAGR, 0.01 μM of HA-GAGR, or 0.1 μM of LA-GAGR for 2 days prior to immunocytochemistry using anti-α-tubulin antibody and secondary Alexa488nm antibody. An etched grid coverslip containing 200 numbered boxes was used to select neurons objectively for image acquisition and analysis. A total of 24 boxes were randomly selected per treatment group. All the neurons having total neurite length longer than 4 times of the diameter of neuron cell body were chosen for image analysis. The total length of the neurites of each neuron was measured using Metamorph and used to calculate average total neurite length. To examine the effect of polysaccharides on the phosphorylation (activation) of nuclear CREB, neurons were stained with anti-pCREB antibody (Abcam & Santa Cruz biotechnologies, 2nd antibody with Alexa568nm), anti-α-tubulin antibody (Sigma, 2nd antibody with Alexa488nm), and DAPI (Sigma) after two-day incubation with vehicle (H2O) or 1 μM of dextran, alginate, or midi-GAGR, 0.01 μM of HA-GAGR, or 0.1 μM of LA-GAGR. […] The images of neurons on coverslips were taken by confocal microscopy at the same gain (850), offset (−0.01), and exposure time (2 sec). The intensity of the staining of nuclear pCREB was measured using Metamorph and used to calculate average intensity. In addition, the phosphorylation of CREB in the cytosols of mouse cortical neurons treated with polysaccharides were detected by immunoblotting. Primary mouse neurons were dissected from 16 mouse embryos (E17) and plated in the wells of 6-well plates (1×10^6 cells/well), differentiated for 6 days, and treated with polysaccharides for 48 h. […] The protein bands on blots recognized by anti-pCREB (Santa Cruz Biotechnologies) and anti-CREB antibodies were detected on Amersham Hyperfilm™ ECL films (GE Healthcare Life Science) using SuperSignal® West Pico Chemiluminescent Substrate (Thermo Scientific).

In experiment [4] the test system is phosphorylated CREB in differentiated PC12 cells. Briefly: nuclear p-CREB immunostaining in differentiated PC12 cells. Format: cell-based. The conditions noted are these: 1 μM, 24 h. On the procedure:
as §1

FGFR1, sequence (P16092 22-822): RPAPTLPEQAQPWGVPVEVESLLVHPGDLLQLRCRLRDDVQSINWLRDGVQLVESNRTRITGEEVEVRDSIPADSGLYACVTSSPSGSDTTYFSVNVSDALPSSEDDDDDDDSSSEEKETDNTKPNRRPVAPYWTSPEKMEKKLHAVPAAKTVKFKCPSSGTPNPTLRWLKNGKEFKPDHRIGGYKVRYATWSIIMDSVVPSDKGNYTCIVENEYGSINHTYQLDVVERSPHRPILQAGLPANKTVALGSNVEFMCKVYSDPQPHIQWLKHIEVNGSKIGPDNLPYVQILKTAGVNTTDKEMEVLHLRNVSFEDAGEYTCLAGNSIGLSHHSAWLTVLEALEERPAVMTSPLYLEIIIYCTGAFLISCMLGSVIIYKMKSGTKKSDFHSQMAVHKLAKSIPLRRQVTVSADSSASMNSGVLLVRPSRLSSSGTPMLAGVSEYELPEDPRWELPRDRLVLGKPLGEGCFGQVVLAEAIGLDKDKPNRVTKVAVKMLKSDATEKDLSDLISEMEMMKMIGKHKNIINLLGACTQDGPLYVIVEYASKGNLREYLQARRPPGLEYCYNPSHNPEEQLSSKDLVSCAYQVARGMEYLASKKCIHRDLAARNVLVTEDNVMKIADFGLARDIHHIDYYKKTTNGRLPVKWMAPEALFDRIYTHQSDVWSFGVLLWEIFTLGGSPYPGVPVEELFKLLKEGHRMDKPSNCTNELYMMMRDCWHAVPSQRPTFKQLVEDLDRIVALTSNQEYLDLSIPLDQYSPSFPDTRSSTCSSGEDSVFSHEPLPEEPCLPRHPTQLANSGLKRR

On to dextran, for which the “neurites in the presence of 4-HNE (neuritic atrophy)” value in experiment [1] is reported as “lost neuritis”. For the same substance, the “increase in levels of nuclear p-CREB” value in experiment [2] and in experiment [4] was “not significantly increased” throughout. The “FGFR1 pulled down from brain extract by polysaccharide-conjugated beads” value at FGFR1 is reported as “not”. Besides, the “fold change in average total neurite length vs vehicle” value in experiment [3] was “did not enhance neuritogenesis”.

The record behind these values is patent US11197885B2, “Collagen enhancing agent made from low acyl gellan gum, methods of making and methods of using the same” (The University of Toledo, priority 2015, dated 2021).
